Test results from patent publication US20100278858A1, “PROCESS FOR PREPARING […] STRAINS” (priority 2007, published 2010).
In brackets after ≈: the same amount, converted by molar mass. Where two headings read alike, the source gives them in different places.

How the values were obtained:
1C3-syn-14-1 = assay: method of reducing viral plates (plaque reduction); format: cell-based, HSV-1; settings: for Relative resistance (RR): IC50 of clone 1C3 syn 14-1 / IC50 of HSV-1 (F)
Method: (§1) According to the present invention, a method of reducing the viral plates comprises the following process: Vero cells monolayers developed in 24 wells microplates are infected with 50 UFP/well of virus in the absence or presence of different compounds concentrations. Each dilution is tested by duplicate. After 1 hour adsorption at 37° C., the inoculum is removed and covered by plating medium (culture media with methylcellulose at a final concentration of 0.7%). Inoculation is continued till the viral plates' appearance, which are then counted after fitting and dying the cells with violet crystal. Moreover, according to the present invention, 50% inhibitory concentration (IC50) means the compound concentration required for reducing about 50% the number of viral plates.
(§2) Compounds were present during the viral adsorption (1h, 37° C.) and after the infection. When a cytopathic action (ACP) between 80-90%, during a period among 24 to 72 hours p.i., was observed, cells were lysed with freeze-thawing cycles. In order to remove cellular moieties, the cellular lisate was centrifuged during 10 min at 1000 rpm, keeping the supernatant at −70° C. The supernatant was used to infect a new monolayer in the presence of SAMMA or PRO2000. […] The title and the IC50 of each viral passage was determined by viral plates reduction test (or after 2-3 passages) against SAMMA or PRO20000.

HSV-1 (F) = assay: method of reducing viral plates (plaque reduction); format: cell-based
Method: as §1, §2

1C3 syn 20-1 = assay: method of reducing viral plates (plaque reduction); format: cell-based, HSV-1; settings: for IC50: strain 1C3 syn 20-1; for Relative resistance (RR): IC50 of clone 1C3 syn 20-1 / IC50 of HSV-1 (F)
Method: as §1
(§3) Thus, preliminary tests of the cloned variants of passages with greater selection pressure of 1C3 (17, 20 and 21) with pyrimidine and purine analogous as aciclovir (ACV) and brivudin (BVDU) would disclose alterations at viral TK level as it is shown in Table VIII, a characteristic that, up to date, has not been published in previous art documents. The TK gene is not essential for the in vitro viral replication, though in vivo, is involved in the virulence, pathogenicity and reactivation since latency (Andrei G et al., 2005). […] Therefore, the selection pressure to which the viruses were subjected could have selected mutations in the TK gene and in additional superimposing genes generating strains with less in vivo pathogenic action (Jacobson J et al., 1993).

1C3 syn 21-1 = assay: method of reducing viral plates (plaque reduction); format: cell-based, HSV-1; settings: for IC50: strain 1C3 syn 21-1; for Relative resistance (RR): IC50 of clone 1C3 syn 21-1 / IC50 of HSV-1 (F)
Method: as §1, §3

1C3 syn 21-3 = assay: method of reducing viral plates (plaque reduction); format: cell-based, HSV-1; settings: for IC50: strain 1C3 syn 21-3; for Relative resistance (RR): IC50 of clone 1C3 syn 21-3 / IC50 of HSV-1 (F)
Method: as §1, §3

1C3 syn 20-3 = assay: method of reducing viral plates (plaque reduction); format: cell-based, HSV-1; settings: for IC50: strain 1C3 syn 20-3; for Relative resistance (RR): IC50 of clone 1C3 syn 20-3 / IC50 of HSV-1 (F)
Method: as §1, §3

1C3 syn 17-3 = assay: method of reducing viral plates (plaque reduction); format: cell-based, HSV-1; settings: for IC50: strain 1C3 syn 17-3; for Relative resistance (RR): IC50 of clone 1C3 syn 17-3 / IC50 of HSV-1 (F)
Method: as §1, §3

1C3 syn 17-1 = assay: method of reducing viral plates (plaque reduction); format: cell-based, HSV-1; settings: for IC50: strain 1C3 syn 17-1; for Relative resistance (RR): IC50 of clone 1C3 syn 17-1 / IC50 of HSV-1 (F)
Method: as §1, §3

1C3 syn 20-2 = assay: method of reducing viral plates (plaque reduction); format: cell-based, HSV-1; settings: for Relative resistance (RR): IC50 of clone 1C3 syn 20-2 / IC50 of HSV-1 (F)
Method: as §1, §3

1C3 syn 17-2 = assay: method of reducing viral plates (plaque reduction); format: cell-based, HSV-1; settings: for IC50: strain 1C3 syn 17-2; for Relative resistance (RR): IC50 of clone 1C3 syn 17-2 / IC50 of HSV-1 (F)
Method: as §1, §3

1C3 syn 21-2 = assay: method of reducing viral plates (plaque reduction); format: cell-based, HSV-1; settings: for IC50: strain 1C3 syn 21-2; for Relative resistance (RR): IC50 of clone 1C3 syn 21-2 / IC50 of HSV-1 (F)
Method: as §1, §3

HSV-1 TK^− B2006 = assay: method of reducing viral plates (plaque reduction); format: cell-based; settings: for Relative resistance (RR): IC50 of HSV-1 TK^− B2006 / IC50 of HSV-1 (F)
Method: as §1, §3

1C3-syn-13-8 = assay: method of reducing viral plates (plaque reduction); format: cell-based, HSV-1
Method: as §1, §2

Pro2000-syn13-1 = assay: method of reducing viral plates (plaque reduction); format: cell-based, HSV-2
Method: as §1, §2
(§4) By the end of a year, the corresponding virus to passages 13 and 16 in the presence of PRO2000 and SAMMA, respectively, were cloned in monolayers of Vero cells developed in 6 wells plates. The cellular monolayers were infected with a limited dilution of virus and were coated with maintenance media (MM) containing agarose 0.6%. After 2 days incubation, cells were dyed with neutral red and clones were stippled. For clone amplification, Vero cells with each selected clone were infected; after 1 hour adsorption at 37° C., the innoculum was discarded and was covered with MM, subjected to incubation 24-48 h at 37° C. till ACP development was observed.

Pro2000-13-10 = assay: method of reducing viral plates (plaque reduction); format: cell-based, HSV-2
Method: as §1, §2, §4

Pro2000-syn13-9 = assay: method of reducing viral plates (plaque reduction); format: cell-based, HSV-2
Method: as §1, §2, §4

SAMMA-15-7 = assay: method of reducing viral plates (plaque reduction); format: cell-based, HSV-2
Method: as §1, §2, §4

SAMMA-15-3 = assay: method of reducing viral plates (plaque reduction); format: cell-based, HSV-2
Method: as §1, §2, §4

Pro2000-13-5 = assay: method of reducing viral plates (plaque reduction); format: cell-based, HSV-2
Method: as §1, §2, §4

HSV-2 (G) = format: cell-based; settings: virus HSV-2 (G)
Method: as §1, §2

[1] = Human alphaherpesvirus 1, read-out: IC50

O=C(O)P(=O)(O)O [Foscarnet, foscarnet]
IC50 (1C3-syn-14-1; Human alphaherpesvirus 1, Table VIII, strain 1C3 syn 14-1, read-out: IC50): 3.12 µg/mL (≈ 24.8 µM)
Relative resistance (RR) (1C3-syn-14-1; Table VIII): < 1.0
IC50 (HSV-1 (F); Human alphaherpesvirus 1, Table VIII, strain HSV-1 (F), read-out: IC50): 6.12 µg/mL (≈ 48.6 µM)
IC50 (1C3 syn 20-1; [1]): 12.5 µg/mL (≈ 99.2 µM)
Relative resistance (RR) (1C3 syn 20-1): 2.0
IC50 (1C3 syn 21-1; [1]): 8.82 µg/mL (≈ 70 µM)
Relative resistance (RR) (1C3 syn 21-1): 1.4
IC50 (1C3 syn 21-3; [1]): 12.5 µg/mL (≈ 99.2 µM)
Relative resistance (RR) (1C3 syn 21-3): 2.0
IC50 (1C3 syn 20-3; [1]): 17.6 µg/mL (≈ 140 µM)
Relative resistance (RR) (1C3 syn 20-3): 2.9
IC50 (1C3 syn 17-3; [1]): 17.6 µg/mL (≈ 140 µM)
Relative resistance (RR) (1C3 syn 17-3): 2.9
IC50 (1C3 syn 17-1; [1]): 17.6 µg/mL (≈ 140 µM)
Relative resistance (RR) (1C3 syn 17-1): 2.9
IC50 (1C3 syn 20-2; Human alphaherpesvirus 1): 12.5 µg/mL (≈ 99.2 µM)
Relative resistance (RR) (1C3 syn 20-2): 2.0
IC50 (1C3 syn 17-2; [1]): 12.5 µg/mL (≈ 99.2 µM)
Relative resistance (RR) (1C3 syn 17-2): 2.0
IC50 (1C3 syn 21-2; [1]): 17.6 µg/mL (≈ 140 µM)
Relative resistance (RR) (1C3 syn 21-2): 2.9
IC50 (HSV-1 TK^− B2006; Human alphaherpesvirus 1): 35.1 µg/mL (≈ 279 µM)
Relative resistance (RR) (HSV-1 TK^− B2006): 5.0

Heparine
RR (relative resistance) (1C3-syn-14-1; Table IV, IC50 of variant 1C3-syn-14-1 / IC50 for HSV-1 (F)): 2.9
IC50 (1C3-syn-14-1; Table IV, virus 1C3-syn-14-1): 4.1 µg/mL
Relative resistance (RR) (1C3-syn-14-1; Table VIII): 5.7
IC50 (1C3-syn-14-1; Table VIII, strain 1C3 syn 14-1): 7.1 µg/mL
susceptibility of variant to drug (in words) (1C3-syn-14-1; variant 1C3-syn-14-1): resistant
RR (relative resistance) (1C3-syn-13-8; IC50 of variant 1C3-syn-13-8 / IC50 for HSV-1 (F)): 0.9
IC50 (1C3-syn-13-8; Table IV, virus 1C3-syn-13-8): 1.2 µg/mL
susceptibility of variant to drug (in words) (1C3-syn-13-8; variant 1C3-syn-13-8): sensitive
IC50 (HSV-1 (F); Table IV, virus HSV-1 (F)): 1.4 µg/mL
IC50 (HSV-1 (F); Table VIII, strain HSV-1 (F)): 1.25 µg/mL
Relative resistance (RR) (1C3 syn 20-1): > 16.0
IC50 (1C3 syn 20-1): > 20 µg/mL
Relative resistance (RR) (1C3 syn 21-1): 8.0
IC50 (1C3 syn 21-1): 10.0 µg/mL
Relative resistance (RR) (1C3 syn 21-3): 5.7
IC50 (1C3 syn 21-3): 7.1 µg/mL
Relative resistance (RR) (1C3 syn 20-3): > 16.0
IC50 (1C3 syn 20-3): > 20 µg/mL
Relative resistance (RR) (1C3 syn 17-3): 5.7
IC50 (1C3 syn 17-3): 7.1 µg/mL
Relative resistance (RR) (1C3 syn 17-1): 8.0
IC50 (1C3 syn 17-1): 10.0 µg/mL
Relative resistance (RR) (1C3 syn 20-2): > 16.0
IC50 (1C3 syn 20-2; strain 1C3 syn 20-2): > 20 µg/mL
Relative resistance (RR) (1C3 syn 17-2): > 16.0
IC50 (1C3 syn 17-2): > 20 µg/mL
Relative resistance (RR) (1C3 syn 21-2): 8.0
IC50 (1C3 syn 21-2): 10.0 µg/mL
RR (relative resistance) (Pro2000-syn13-1; IC50 of variant Pro2000-syn13-1 / IC50 for HSV-2 (G)): 4.3
IC50 (Pro2000-syn13-1; virus Pro2000-syn13-1): 7.8 µg/mL
RR (relative resistance) (Pro2000-13-10; IC50 of variant Pro2000-13-10 / IC50 for HSV-2 (G)): 1.4
IC50 (Pro2000-13-10; virus Pro2000-13-10): 2.6 µg/mL
RR (relative resistance) (Pro2000-syn13-9; IC50 of variant Pro2000-syn13-9 / IC50 for HSV-2 (G)): 10.8
susceptibility of variant to drug (in words) (Pro2000-syn13-9; variant Pro2000-syn-13-9): resistant
IC50 (Pro2000-syn13-9; virus Pro2000-syn13-9): 19.5 µg/mL
RR (relative resistance) (SAMMA-15-7; IC50 of variant SAMMA-15-7 / IC50 for HSV-2 (G)): 6.7
IC50 (SAMMA-15-7; virus SAMMA-15-7): 12.0 µg/mL
RR (relative resistance) (SAMMA-15-3; IC50 of variant SAMMA-15-3 / IC50 for HSV-2 (G)): 4.6
susceptibility of variant to drug (in words) (SAMMA-15-3; variant SAMMA-15-3): resistant
IC50 (SAMMA-15-3; virus SAMMA-15-3): 8.4 µg/mL
RR (relative resistance) (Pro2000-13-5; IC50 of variant Pro2000-13-5 / IC50 for HSV-2 (G)): 1.2
IC50 (Pro2000-13-5; virus Pro2000-13-5): 2.2 µg/mL
IC50 (HSV-2 (G)): 1.8 µg/mL
Relative resistance (RR) (HSV-1 TK^− B2006): 3.0
IC50 (HSV-1 TK^− B2006; strain HSV-1 TK^− B2006): 3.5 µg/mL
